Measured values published in patent publication US12291522B2, “Galectin-3 inhibitors” (BRISTOL-MYERS SQUIBB COMPANY, priority 2020, dated 2025).
Where two headings read alike, the source gives them in different places.

What was measured:
[1] = target: His-tagged recombinant human Gal-3 (hGal-3) (Homo sapiens, UniProt P17931); assay: Gal-3 HTRF assay (His-tagged hGal-3 / B-ASF); type: binding; details: 15 nM hGal-3, 15 nM B-ASF
Method: ASSAY BUFFER Composition: 25 mM HEPES, 100 mM NaCl, 0.005% Tween 20, 0.05% BSA prepared in sterile water (all reagents from Sigma).
• Positive Control: 100% DMSO (1 μL)+His-tagged hGal-3 (20 μL)+B-ASF (20 μL)+Anti-His Terbium Antibody (5 μL)+Strep d2 Antibody (5 μL). • Negative Control: 100% DMSO (1 μL)+His-tagged hGal-3 (20 μL)+Anti His Terbium Antibody (5 μL)+Strep d2 Aantibody (5 μL). Stocks Preparation:
PROTOCOL: The Gal-3 assays were performed in 384 white Opti plates in three replicates at room temperature with gentle shaking at 250-300 rpmFrom the original stocks, […] working stock concentrations of His-tagged recombinant human Gal-3 (hGal-3) and that of B-ASF were prepared. From the working stock, 20 μL of hGal-3 (15 nM) and 20 μL B-ASF (15 nM) were added to the plates. In Negative Control, only hGal-3 was added. A concentration range of 50× working stocks were prepared for the compounds in 100% DMSO. Aliquots of luL of the compounds were added to the wells and pre-incubated with 20 μL hGal-3 per well for 30 minutes Then 20 μL B-ASF wereadded and incubated for another 1 hour. To detect the signal, 5 μL (final conc. of 1.0 nM) terbium labelled Anti-His antibody was added and incubated for 30 min followed by adding 5 μL (final conc. of 20 nM) Streptavidin d2 and incubation for another 1 hour. The assay signal was detected using HTRF screen protocol (Excitation wavelength=340 nm, emission wavelength=615 nm/665 nm) on Envision 2104 Multilabel Reader. Data analysed using Toolset and Curve Master. Results are reported in the experimental section (IC50 in μM).

[2] = target: T1, Gal3 (Human Galectin-3) in THP-1 cells (Homo sapiens, UniProt P17931); assay: ELISA Gal3 Degradation Assay in THP-1 Cells; type: cell-based; details: 48 hours, culture media Gal3 by ELISA
T1 construct: host or cells: THP-1
T1 sequence (P17931 whole entry): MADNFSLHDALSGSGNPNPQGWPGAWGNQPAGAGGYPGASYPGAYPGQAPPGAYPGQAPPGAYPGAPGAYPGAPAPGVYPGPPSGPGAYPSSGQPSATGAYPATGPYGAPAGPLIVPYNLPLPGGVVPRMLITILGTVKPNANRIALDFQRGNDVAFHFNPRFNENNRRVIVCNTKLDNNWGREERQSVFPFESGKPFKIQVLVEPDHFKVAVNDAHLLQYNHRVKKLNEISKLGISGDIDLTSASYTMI
Method: [formula] ELISA Gal3 Degradation Assay in THP-1 Cells
THP-1 cells (ATCC, Cat #TIB-202), a human monocyte cell line derived from leukemia were plated at 2E6 cells/mL in 200 uL/well of RPMI 1640 (ThermoFisher, Cat #11835) in 96-well plates. Cells were treated with DMSO as a control and various concentrations of compounds for 48 hours. After the treatment, the culture media were collected. The PBS washed cell pellets were lysed in Lysis Buffer (Cell Signaling, Cat #9803) supplemented with 1XProtease Inhibitor Cocktail (Cell Signaling, Cat #5872). Gal3 levels in culture media and cell lysates were quantified by ELISA assays (Human Galectin-3 DuoSet ELISA kit, R&D Systems, Cat #DY1154) according to manufacturer's instructions. The cell culture media were also used for the assessment of cellular toxicity (LDH Assay kit, R&D Systems, DY994). The IC50 (degradation concentration at 50%) values were calculated based on the cellular Gal3 protein levels using DMSO as the control.

[3] = target: T2, hCRBN (NanoLuc-CRBN fusion construct in HEK-293 cells) (Homo sapiens, UniProt Q96SW2); assay: CRBN BRET Target Engagement; type: cell-based; details: NanoLuc-CRBN transfected HEK-293 cells, BRET with CRBN Probe
T2 construct: expressed in transfected cells; host or cells: HEK-293
T2 sequence (Q96SW2 whole entry, the tested form may be a part): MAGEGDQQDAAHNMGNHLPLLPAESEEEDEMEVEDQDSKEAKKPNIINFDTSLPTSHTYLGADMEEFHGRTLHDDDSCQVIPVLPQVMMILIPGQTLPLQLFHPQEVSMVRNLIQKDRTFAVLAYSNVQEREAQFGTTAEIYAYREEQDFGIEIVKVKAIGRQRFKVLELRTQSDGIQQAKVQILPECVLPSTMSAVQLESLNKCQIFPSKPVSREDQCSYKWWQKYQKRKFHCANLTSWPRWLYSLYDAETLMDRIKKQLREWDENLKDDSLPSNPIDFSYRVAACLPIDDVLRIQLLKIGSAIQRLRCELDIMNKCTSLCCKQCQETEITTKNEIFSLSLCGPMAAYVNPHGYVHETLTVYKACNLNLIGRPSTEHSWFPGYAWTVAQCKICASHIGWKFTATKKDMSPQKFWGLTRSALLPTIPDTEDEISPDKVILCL
Method: CRBN BRET Target Engagement (hCRBN IC50 (μM))
NanoLuc-CRBN fusion construct was transfected in HEK-293 cells using FuGENE HD (Promega) according to the manufacturer's protocol. In brief, Nluc-CRBN was diluted into Transfection Carrier DNA (Promega) 1:10 (mass/mass), to which FuGENE HD was 1:3 (μg DNA:μL FuGENE HD). One part (vol) of DNA:FuGENE HD complexes were combined with 20 parts (vol) of HEK-293 cells suspended at a density of […]. Cells were incubated for ˜20 hr at 37° C./5% CO2. Following transfection, cells were washed and resuspended at 200,000 cells/mL in OptiMEM without phenol red (Gibco).
For BRET measurements, cells were seeded in a 384-well nonbinding surface plate (Corning) plate for a final count of 10,000 cells/well. Compounds were dissolved at 10 mM in dimethylsulfoxide (DMSO) and evaluated at eleven concentrations using a high concentration of […]. CRBN Probe was used for equilibrium measurements, employing a final concentration of approximately EC50-80. For live-cell measurements, 20 nM of CRBN Probe was added. For the live-cell assay conditions, the plates were incubated for 2 hours at 37° C./5% CO2. NanoBRET NanoGlo Substrate and Extracellular Nanoluc Inhibitor (Promega) were added according to manufacturer's guidelines. For lytic cell measurements, digitonin was added to the cells to a final concentration of 50 μg/mL and 20 nM of CRBN Probe was added. To measure NanoBRET in permeabilized cells, extracellular Nluc inhibitor was omitted during the detection step. For all BRET experiments, the Envision 2015 (Perkin Elmer) equipped with a BRET2 Enh mirror, BRET 647 nM/75 nM Bandwidth and BC703 460 nM/80 nM Bandwidth filters was used for readouts. Each read was integrated for 0.5 s.
To determine compound potency (IC50), BRET ratios for each dilution series was first normalized to a % Inhibition value via Equation 1, where “S” represents Sample BRET, “B” represents Background BRET, and “T” represents Total BRET. In this equation, the background control (B) consists of NanoLuc-CRBN expressing cells and no CRBN Probe. The total BRET Ratio (T) consists of NanoLuc-CRBN expressing cells, CRBN Probe, and an amount of DMSO at a concentration equivalent to that added when testing compounds.
Following normalization, the percent inhibition values are plotted as a function of compound concentration and fit to Equation 2. […]

[4] = test 1, read-out: Supernatant (IC50) test 1
[5] = test 2, read-out: Supernatant (IC50) test 2

His-tagged recombinant human Gal-3 (hGal-3), sequence (P17931 whole entry): as the sequence (P17931 whole entry) above

| IC50 [1] | IC50 [2, 4] | IC50 [2, 5] | IC50 [3] | Structure (SMILES) |
| --- | --- | --- | --- | --- |
| 48 nM | 281 nM | 38 nM | 1420 nM | Cc1nc([C@@H]2O[C@H](CO)[C@H](O)[C@H](n3cc(-c4cc(F)c(Cl)c(F)c4)nn3)[C@H]2OCC(=O)N2CC(Oc3ccc(C(=O)Nc4ccc5c(c4)CN(C4CCC(=O)NC4=O)C5=O)cc3)C2)n(-c2cc(Cl)ccc2C(F)(F)F)n1 (stereo partly drawn) [Example 8, 4-((1-(2-(((2S,3R,4S,5R,6R)-2-(1-(5-Chloro-2-(trifluoromethyl)phenyl)-3-methyl-1H-1,2,4-triazol-5-yl)-4-(4-(4-chloro-3,5-difluorophenyl)-1H-1,2,3-triazol-1-yl)-5-hydroxy-6-(hydroxymethyl)tetrahydro-2H-pyran-3-yl)oxy)acetyl)azetidin-3-yl)oxy)-N-(2-(2,6-dioxopiperidin-3-yl)-1-oxoisoindolin-5-yl)benzamide] |
| 70 nM | 1040 nM | 23 nM | 930 nM | Cc1nc([C@@H]2O[C@H](CO)[C@H](O)[C@H](n3cc(-c4cc(F)c(Cl)c(F)c4)nn3)[C@H]2OCC(=O)N[C@H]2C[C@@H](Oc3ccc(C(=O)Nc4cccc5c4CN(C4CCC(=O)NC4=O)C5=O)nc3)C2)n(-c2cc(Cl)ccc2C(F)(F)F)n1 (some centres unmarked) [Example 21] |
| 94 nM | 1250 nM | 1580 nM | 13700 nM | Cc1nc([C@@H]2O[C@H](CO)[C@H](O)[C@H](n3cc(-c4cc(F)c(Cl)c(F)c4)nn3)[C@H]2OCC(=O)N2CC(COc3ccc(C(=O)Nc4cccc5c4CN(C4CCC(=O)NC4=O)C5=O)nc3)C2)n(-c2cc(Cl)ccc2C(F)(F)F)n1 (some centres unmarked) [Example 32] |
| 110 nM | 4580 nM | 210 nM | 1020 nM | Cc1nc([C@@H]2O[C@H](CO)[C@H](O)[C@H](n3cc(-c4cc(F)c(Cl)c(F)c4)nn3)[C@H]2OCC(=O)N2CC3(CC(Oc4ccc(C(=O)Nc5ccc6c(c5)CN(C5CCC(=O)NC5=O)C6=O)cc4)C3)C2)n(-c2cc(Cl)ccc2C(F)(F)F)n1 (some centres unmarked) [Example 34] |
| 77 nM | 314 nM | 338 nM | 498 nM | Cc1nc([C@@H]2O[C@H](CO)[C@H](O)[C@H](n3cc(-c4cc(F)c(Cl)c(F)c4)nn3)[C@H]2OCC(=O)N2CC(Oc3ccc(C(=O)Nc4ccc5c(c4)CN(C4CCC(=O)NC4=O)C5=O)nc3)C2)n(-c2cc(Cl)ccc2C(F)(F)F)n1 (some centres unmarked) [Example 35] |

| Structure (SMILES) | IC50 [1] | IC50 [2, 4] | IC50 [2, 5] | IC50 [3] |
| --- | --- | --- | --- | --- |
| Cc1nc([C@@H]2O[C@H](CO)[C@H](O)[C@H](n3cc(-c4cc(F)c(Cl)c(F)c4)nn3)[C@H]2OCC(=O)N[C@H]2C[C@@H](Oc3ccc(C(=O)Nc4ccc5c(c4)CN(C4CCC(=O)NC4=O)C5=O)nc3)C2)n(-c2cc(Cl)ccc2C(F)(F)F)n1 (stereo partly drawn) [Example 4, 5-(cis-3-(2-(((2S,3R,4S,5R,6R)-2-(1-(5-Chloro-2-(trifluoromethyl)phenyl)-3-methyl-1H-1,2,4-triazol-5-yl)-4-(4-(4-chloro-3,5-difluorophenyl)-1H-1,2,3-triazol-1-yl)-5-hydroxy-6-(hydroxymethyl)tetrahydro-2H-pyran-3-yl)oxy)acetamido)cyclobutoxy)-N-(2-(2,6-dioxopiperidin-3-yl)-1-oxoisoindolin-5-yl)picolinamide] | 81 nM | 68 nM | 96 nM | 174 nM |
| Cc1nc([C@@H]2O[C@H](CO)[C@H](O)[C@H](n3cc(-c4cc(F)c(Cl)c(F)c4)nn3)[C@H]2OCC(=O)N[C@H]2C[C@@H](Oc3ccc(C(=O)Nc4ccc5c(c4)CN([C@@H]4CCC(=O)NC4=O)C5=O)nc3)C2)n(-c2cc(Cl)ccc2C(F)(F)F)n1 [Example 6, 5-(cis-3-(2-(((2S,3R,4S,5R,6R)-2-(1-(5-chloro-2-(trifluoromethyl)phenyl)-3-methyl-1H-1,2,4-triazol-5-yl)-4-(4-(4-chloro-3,5-difluorophenyl)-1H-1,2,3-triazol-1-yl)-5-hydroxy-6-(hydroxymethyl)tetrahydro-2H-pyran-3-yl)oxy)acetamido)cyclobutoxy)-N-(2-((R)-2,6-dioxopiperidin-3-yl)-1-oxoisoindolin-5-yl)picolinamide] | 74 nM | 39 nM | 15 nM | > 50000 nM |
| Cc1nc([C@@H]2O[C@H](CO)[C@H](O)[C@H](n3cc(-c4cc(F)c(Cl)c(F)c4)nn3)[C@H]2OCC(=O)N[C@H]2C[C@@H](Oc3ccc(C(=O)Nc4ccc5c(c4)CN([C@H]4CCC(=O)NC4=O)C5=O)nc3)C2)n(-c2cc(Cl)ccc2C(F)(F)F)n1 [Example 5, 5-(cis-3-(2-(((2S,3R,4S,5R,6R)-2-(1-(5-chloro-2-(trifluoromethyl)phenyl)-3-methyl-1H-1,2,4-triazol-5-yl)-4-(4-(4-chloro-3,5-difluorophenyl)-1H-1,2,3-triazol-1-yl)-5-hydroxy-6-(hydroxymethyl)tetrahydro-2H-pyran-3-yl)oxy)acetamido)cyclobutoxy)-N-(2-((S)-2,6-dioxopiperidin-3-yl)-1-oxoisoindolin-5-yl)picolinamide] | 84 nM | < 10 nM | < 10 nM | 39 nM |
